Data taken from the supplement of paper PMC10331698.
± gives the standard deviation of the averaged measurements.

Columns and labels:
Assay in all cases: level (log10 ratio to DMSO vehicle control); higher = higher biomarker level / cell amount than vehicle control
Details in all cases: in DMSO
[1] = compound: O=C(O)C(F)(F)C(F)(F)F [Perfluoropropanoic acid]
Method: (§1)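 BioMAP Diversity Plus panel of 12 human primary cell co-culture systems (3C, 4H, LPS, SAg, BT, BF4T, BE3C, CASM3C, HDF3CGF, KF3CT, MyoF, Mphg). Compounds were added 1 h before stimulation and left for 24 h (MyoF 48 h; BT 72 h for soluble read-outs or 6 d for IgG). Biomarkers were read by ELISA, cytotoxicity by SRB, PBMC viability and proliferation by Alamar Blue. Each well value was divided by the mean of 8 DMSO control wells on the same plate and log10 transformed; duplicate blinded samples were tested at 4 concentrations.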

[2] = compound: NCC(F)(F)C(F)(F)C(F)(F)C(F)(F)C(F)(F)C(F)(F)C(F)(F)F [1H,1H-Perfluorooctylamine]
Method: as §1

[3] = compound: FC(F)(F)C(F)(C(F)(F)F)C(F)(F)C(F)(F)CC1CO1 [3-(Perfluoro-3-methylbutyl)-1,2-propenoxide]
Method: as §1

[4] = compound: O=C(O)C(F)(F)C(F)(F)C(F)(F)C(F)(F)C(F)(F)C(F)(F)C(F)(F)C(F)(F)C(F)(F)F [Perfluorodecanoic acid]
Method: as §1

[5] = compound: O=C(O)C(F)(F)C(F)(F)C(F)(F)OC(F)(C(F)(F)F)C(F)(F)F [Perfluoro-4-isopropoxybutanoic acid]
Method: as §1

[6] = compound: FC(F)(F)C(F)(F)C(F)(F)C(F)(F)C(F)(F)C(F)(F)I [Perfluoro-1-iodohexane]
Method: as §1

[7] = compound: COC(=O)CCC(F)(F)C(F)(F)C(F)(F)C(F)(F)F [Methyl 2H,2H,3H,3H-perfluoroheptanoate]
Method: as §1

Row | Test System | level (log10) ([1]; 6700 nM) | level (log10) ([1]; 20000 nM) | level (log10) ([1]; 60000 nM) | level (log10) ([2]; 6700 nM) | level (log10) ([2]; 20000 nM) | level (log10) ([2]; 60000 nM) | level (log10) ([3]; 6700 nM) | level (log10) ([3]; 20000 nM) | level (log10) ([4]; 6700 nM) | level (log10) ([4]; 20000 nM) | level (log10) ([5]; 6700 nM) | level (log10) ([5]; 20000 nM) | level (log10) ([5]; 60000 nM) | level (log10) ([6]; 6700 nM) | level (log10) ([6]; 20000 nM) | level (log10) ([6]; 60000 nM) | level (log10) ([7]; 6700 nM) | level (log10) ([7]; 20000 nM) | level (log10) ([7]; 60000 nM)
1 | BE3C:CXCL8/IL-8 | -0.0355 ± 0.083 | 0.001 ± 0.083 | 0.0605 ± 0.13 | -0.017 ± 0.023 | -0.0075 ± 0.025 | -0.005 ± 0.013 | 0.011 | 0.0205 ± 0.023 | -0.0545 ± 0.069 | -0.577 ± 0.023 | 0.0175 ± 0.025 | 0.0185 ± 0.019 | 0.015 ± 0.038 | 0.011 ± 0.033 | 0.021 ± 0.028 | 0.052 ± 0.033 | 0.032 ± 0.044 | 0.002 ± 0.057 | 0.0295 ± 0.053
2 | BE3C:CXCL9/MIG | -0.0005 ± 0.016 | 0.0035 ± 0.0078 | 0.0165 ± 0.023 | -0.0095 ± 0.011 | 0.0035 ± 0.022 | 0.0005 ± 0.0021 | -0.005 ± 0.0042 | -0.0035 ± 0.005 | -0.003 ± 0.0042 | -0.715 ± 0.9 | 0.001 ± 0.0028 | 0.012 ± 0.0071 | 0.014 ± 0.017 | 0.0085 ± 0.0035 | -0.002 ± 0.0071 | -0.0035 ± 0.018 | -0.0025 ± 0.016 | -0.007 ± 0.0014 | -0.0095 ± 0.00071
3 | BE3C:CXCL10/IP-10 | -0.0125 ± 0.019 | 0.0035 ± 0.022 | 0.014 ± 0.025 | 0.004 ± 0.0014 | -0.0025 ± 0.0035 | 0.002 ± 0.0085 | -0.0115 ± 0.023 | -0.0065 ± 0.011 | -0.188 ± 0.088 | -1.16 | 0.003 ± 0.0014 | 0.0135 ± 0.00071 | 0.0155 ± 0.015 | 0.013 ± 0.018 | 0.0135 ± 0.0078 | 0.0355 ± 0.022 | -0.001 ± 0.013 | -0.004 ± 0.0057 | -0.006 ± 0.0099
4 | BE3C:CXCL11/I-TAC | 0.007 ± 0.0071 | 0.013 ± 0.014 | 0.029 ± 0.033 | 0.0105 ± 0.005 | -0.012 ± 0.011 | -0.0105 ± 0.005 | 0 ± 0.0057 | -0.0075 ± 0.0035 | -0.0405 ± 0.021 | -0.849 ± 0.028 | -0.0095 ± 0.005 | 0.008 ± 0.0014 | 0.018 ± 0.0099 | -0.0005 ± 0.0021 | 0.002 ± 0.0057 | 0.0175 ± 0.0092 | -0.0175 ± 0.012 | -0.011 ± 0.018 | -0.0095 ± 0.00071
5 | BE3C:EGFR | -0.0175 ± 0.036 | 0.0065 ± 0.012 | 0.035 ± 0.035 | -0.005 ± 0.0099 | -0.018 ± 0.0057 | 0.003 ± 0.0014 | -0.01 ± 0.013 | -0.023 ± 0.013 | -0.0135 ± 0.05 | -0.149 ± 0.073 | 0.012 ± 0.027 | 0.0075 ± 0.005 | 0.044 ± 0.042 | 0.0095 ± 0.00071 | -0.0055 ± 0.0021 | 0.0285 ± 0.013 | -0.029 ± 0.021 | 0.008 ± 0.0042 | -0.022 ± 0.0071
6 | BE3C:HLA-DR | -0.026 ± 0.0085 | -0.012 ± 0.024 | 0.016 ± 0.016 | -0.001 | -0.0145 ± 0.011 | -0.0065 ± 0.0092 | -0.0075 ± 0.005 | -0.003 ± 0.0085 | -0.0525 ± 0.022 | -0.842 ± 0.04 | -0.0045 ± 0.025 | -0.0045 ± 0.016 | 0.0105 ± 0.011 | -0.003 ± 0.0028 | 0.003 ± 0.0057 | -0.009 ± 0.0028 | -0.016 | 0.004 ± 0.0028 | -0.0235 ± 0.03
7 | BE3C:IL-1alpha | -0.019 ± 0.016 | -0.021 ± 0.04 | -0.0115 ± 0.023 | -0.002 ± 0.0028 | -0.0285 ± 0.016 | -0.01 ± 0.0014 | 0.002 ± 0.025 | 0.023 ± 0.057 | -0.0245 ± 0.00071 | -0.811 ± 0.055 | 0.0065 ± 0.026 | 0.016 ± 0.02 | 0.0325 ± 0.00071 | -0.0155 ± 0.013 | -0.009 ± 0.0014 | -0.0195 ± 0.013 | 0.014 ± 0.023 | -0.002 ± 0.013 | 0.025 ± 0.047
